≈ marks a conversion by molar mass, not a printed value. Where “and” joins values, the source holds several entries; their conditions need not be identical. Equal entries are not always repeated. Where two headings read alike, the source gives them in different places. *1 amine or outer side, *2 acyl side, *3 side chain or, on linkers, in order; H or OH if unused. Where a SMILES comes first, the peptide text is derived from it. [ ]: non-standard residue; d: D form. X2 = C#CCn1cc(C[C@@H](C(=O)[*:2])N(C)[*:1])c2ccccc21; NMeTrp(1-Me) = CN[C@@H](Cc1cn(C)c2ccccc12)C(=O)O; X4 = C=CCO[C@H](c1ccccc1)[C@H](N[*:1])C(=O)[*:2]; NMeLeu(5-OH,4R) = CN[C@@H](C[C@@H](C)CO)C(=O)O; Phe(βR-OMe) = CO[C@H](c1ccccc1)[C@H](N)C(=O)O; Trp(1-Me) = Cn1cc(C[C@H](N)C(=O)O)c2ccccc21; NMeL = CN[C@@H](CC(C)C)C(=O)O; Pra = C#CC[C@H](N)C(=O)O
How the values were obtained:
[1] = type: in vitro ADME, Mice; conditions: for Microsomal Stability Mice: clearance in microsomes
Method: (§1) The kinetics of compound degradation in liver microsomes is assessed in an assay with 1 µmol/l of compound and 0.5 mg/ml liver microsomes in a medium of 100 mM Tris-HCl pH 7.5, 6.5 mM MgCl2 and 1 mM NADPH at 37 °C. The reaction is stopped at multiple time points by adding acetonitrile. After centrifugation, the compound concentration is measured in the supernatants by high-performance liquid chromatography (HPLC) tandem mass spectrometry (MS/MS). The results are fitted to a first-order decay and the half-lives are converted to clearance (stated as % of the liver blood flow (%Qh)) using the well-stirred liver model.

[2] = biological target: ClpC1 NTD protein (M. tuberculosis) (Mycobacterium tuberculosis, UniProt P9WPC9); test: biochemical; type: binding
Msm 607 = test: microbe, parasite or virus in culture; type: cell-based
in vitro = conditions: human; for efflux ratio: Caco-2
Summary of the method: (§2)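 Permeability across Caco-2 monolayers was measured in both directions, apical-to-basolateral and basolateral-to-apical, in 10^-6 cm s-1. Efflux ratio = P(B−A)/P(A−B). Intrinsic permeability is the mean of P(A−B) and P(B−A).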

Caco-2 monolayers = test: in vitro; conditions: human, Caco-2
Summary of the method: as §2

[3] = Microsomal stability, human; type: in vitro ADME; conditions: for Microsomal Stability Human: clearance in microsomes
Method: as §1

[4] = system: M. tuberculosis H37Rv (ATCC 27294); test: microbe, parasite or virus in culture; type: cell-based
[5] = Hepatocyte stability, mice; type: in vitro ADME; conditions: mouse, pH 7.4
Summary of the method: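 Clearance, expressed as % of liver blood flow (% Qh), derived from parent-compound half-life by the well-stirred model, with HPLC-MS/MS quantitation after acetonitrile quench. Test compound at 1 µM final added to mouse hepatocyte suspension in 50% serum after 15–30 min acclimation at 37 °C; six samples over up to 6 h.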

[6] = type: in vitro ADME, Human; conditions: human, pH 7.4
[7] = type: in vitro ADME, Rat; conditions: for Microsomal Stability Rat: clearance in microsomes
Method: as §1

Msm 700084 = test: microbe, parasite or virus in culture; type: cell-based
[8] = type: in vitro ADME, Rat; conditions: rat, pH 7.4
[9] = SPR (Supplementary Table 1), read-out: KD ClpC1-NTD Mean ± SD
[10] = SPR dissociation rate constant, read-out: koff ClpC1-NTD Mean ± SD
[11] = SPR, single independent measurements
[12] = SPR, single independent measurements, read-out: KD ClpC1-NTD
[13] = SPR, single independent measurements, read-out: koff ClpC1-NTD
[14] = Mycolicibacterium smegmatis, 607, read-out: MIC Msm 607
[15] = Mycolicibacterium smegmatis, 607, read-out: Msm 607 MIC, single determinations
[16] = Caco-2, Caco-2 permeability P (A-B)
[17] = Mycobacterium tuberculosis, Mtb H37Rv (Supplementary Table 2), read-out: MIC Mtb
[18] = Mycobacterium tuberculosis, single determinations, read-out: Mtb MIC
[19] = Mycolicibacterium smegmatis, 700084, single determinations, read-out: Msm 700084 MIC
[20] = Mycolicibacterium smegmatis, 700084, read-out: MIC Msm 700084
[21] = SPR, individual measurements (source data), read-out: KD ClpC1-NTD
[22] = SPR, read-out: ClpC1-NTD KD Mean ± SD
[23] = Caco-2, Caco-2 permeability P (B-A)
[24] = Mycobacterium tuberculosis, M. tuberculosis H37Rv strain, read-out: MIC Mtb H37Rv Mean ± SD
[25] = Mycobacterium tuberculosis, individual measurements (source data), read-out: Mtb MIC
[26] = individual measurements (source data), read-out: Mtb MIC

Chain of ClpC1 NTD protein (M. tuberculosis) (P9WPC9 1-156, looked up, natural form): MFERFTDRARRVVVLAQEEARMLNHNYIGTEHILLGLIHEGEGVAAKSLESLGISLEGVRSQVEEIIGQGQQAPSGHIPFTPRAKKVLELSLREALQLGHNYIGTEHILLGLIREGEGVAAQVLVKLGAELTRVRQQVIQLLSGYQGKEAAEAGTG

Structure (SMILES)	Microsomal Stability Mouse QH [1]	Microsomal Stability Mice [1] [%Qh]	MIC (Msm 607; [14]) [µM]	MIC (Msm 607; [15]) [µM]	efflux ratio (in vitro)	Papp A→B (in vitro; Caco-2, CACO permeability PEAB) [×10⁻⁶ cm/s]	Caco-2 Int. Perm (Caco-2 monolayers)	Microsomal Stability Human QH [3]	Microsomal Stability Human [3] [%Qh]	MIC [4, 17] [µM]	MIC [4, 18] [µM]	Hepatocyte Mice [5] [%Qh]	Hepatocyte Stability Mouse QH [5] [%]	Hepatocyte Stability Human QH [6] [%]	Microsomal Stability Rat QH [7]	Microsomal Stability Rat [7] [%Qh]	MIC (Msm 700084; [19]) [µM]	MIC (Msm 700084; [20]) [µM]	Hepatocyte Rat [8] [%Qh]	Hepatocyte Stability Rat QH [8] [%]	further results
CO[C@H](c1ccccc1)[C@@H]1NC(=O)[C@H](C)NC(=O)[C@H](C[C@@H](C)CO)N(C)C(=O)[C@H](Cc2cn(C)c3ccccc23)N(C)C(=O)[C@H](CCC(=O)N(C)C)NC(=O)[C@H](CC(C)C)N(C)C(=O)[C@H](C(C)C)NC1=O [SI-76] (cyclo(A[Phe(βR-OMe)]V[NMeL]E(NMe2)[NMeTrp(1-Me)][NMeLeu(5-OH,4R)]))	>88.400%	> 88	12.5 (≈ 12.4 µg/mL)	12.5 (≈ 12.4 µg/mL)	> 84	< 0.11	4.3	>88.400%	> 88	6.3 (≈ 6.23 µg/mL)	6.25 (≈ 6.18 µg/mL)	23	23.483	19.852	78.000%	78	25 (≈ 24.7 µg/mL)	25 (≈ 24.7 µg/mL)	52	52.287	Kd [2, 9]: 26 ± 6 nM; koff [2, 10]: 0.06 s⁻¹; koff ClpC1-NTD [2, 11]: 6E-2 6E-2 1/s; Kd [2, 12]: 21.4 nM and 30.5 nM; koff [2, 13]: 0.06 s⁻¹; Papp B→A (in vitro; Caco-2, CACO permeability PEBA): 10 ×10⁻⁶ cm/s; Papp A→B (in vitro; [16]): < 0.1 ×10⁻⁶ cm/s
C#CC[C@@H]1NC(=O)[C@H](CC(C)C)N(C)C(=O)[C@H](C(C)C)NC(=O)[C@H]([C@H](OC)c2ccccc2)NC(=O)[C@H](C)NC(=O)[C@H](C[C@@H](C)CO)N(C)C(=O)[C@H](Cc2cn(C)c3ccccc23)N(C)C1=O [Compound 20] (cyclo(A[Phe(βR-OMe)]V[NMeL][Pra][NMeTrp(1-Me)][NMeLeu(5-OH,4R)]))	>88.400%	> 88	25 (≈ 23.2 µg/mL)	25 (≈ 23.2 µg/mL)	11.8	2	15.7	>88.400%	> 88	50 (≈ 46.4 µg/mL)	50 (≈ 46.4 µg/mL)	59	58.928	34.158	>87.900%	> 88	> 50	> 50	63	63.002	Kd [2, 21]: 14.1 nM and 13.7 nM; Kd [2, 22]: 13.9 ± 0.3 nM; Papp B→A (in vitro; Caco-2, CACO permeability PEBA): 36 ×10⁻⁶ cm/s; Papp A→B (in vitro; [16]): 2.8 ×10⁻⁶ cm/s; Papp B→A (in vitro; [23]): 28.5 ×10⁻⁶ cm/s; Influence of N-methylation on permeability (Caco-2 monolayers): >11.8; Permeability Correlation P (A-B) (Caco-2 monolayers): > 28; MIC [4, 24]: 50 µM (≈ 46.4 µg/mL); MIC [4, 25]: 50 µM (≈ 46.4 µg/mL); MIC [4, 26]: 50.000 µM (≈ 46.4 µg/mL); Hepatocyte Human [6]: 34 %Qh
C=CCO[C@H](c1ccccc1)[C@@H]1NC(=O)[C@H](C)NC(=O)[C@H](C[C@@H](C)CO)N(C)C(=O)[C@H](Cc2cn(C)c3ccccc23)NC(=O)[C@H](C(C)C)NC(=O)[C@H](CC(C)C)N(C)C(=O)[C@H](C(C)C)NC1=O [Compound 14] (cyclo(A[X4]V[NMeL]V[Trp(1-Me)][NMeLeu(5-OH,4R)]))	>88.4 >88.4%	> 88	1.6 (≈ 1.51 µg/mL)	1.56 (≈ 1.47 µg/mL)	12.1		21.7	>88.4 >88.4%	> 88	3.1 (≈ 2.92 µg/mL)	3.12 (≈ 2.95 µg/mL)	29	28.905	41.006	84.3% and 84%	84	12.5 (≈ 11.8 µg/mL)	12.5 (≈ 11.8 µg/mL)	57	56.626	Kd [2, 9]: 10 ± 1 nM; Kd [2, 12]: 9.31 nM and 10.7 nM; Papp B→A (in vitro; Caco-2, CACO permeability PEBA): 30 ×10⁻⁶ cm/s; Hepatocyte Human [6]: 41 %Qh
C#CCn1cc(C[C@H]2C(=O)N(C)[C@@H](C[C@@H](C)CO)C(=O)N[C@@H](C)C(=O)N[C@@H]([C@H](OC)c3ccccc3)C(=O)N[C@@H](C(C)C)C(=O)N(C)[C@@H](CC(C)C)C(=O)N[C@@H](C(C)C)C(=O)N2C)c2ccccc21 [Compound 26] (cyclo(A[Phe(βR-OMe)]V[NMeL]V[X2][NMeLeu(5-OH,4R)]))	>88.400%	> 88	6.3 (≈ 6.02 µg/mL)	6.25 (≈ 5.97 µg/mL)	2.2	25	24.0	>88.400%	> 88	6.3 (≈ 6.02 µg/mL)	6.25 (≈ 5.97 µg/mL)	67	66.557	43.919	>87.900%	> 88	12.5 (≈ 11.9 µg/mL)	12.5 (≈ 11.9 µg/mL)	68	67.861	koff [2, 10]: 0.04 s⁻¹; Kd [2, 21]: 17 nM and 12.3 nM; koff ClpC1-NTD [2, 11]: 4E-2 4E-2 1/s; koff [2, 13]: 0.04 s⁻¹; Kd [2, 22]: 15 ± 3 nM; Papp B→A (in vitro; Caco-2, CACO permeability PEBA): 49 ×10⁻⁶ cm/s; Influence of N-methylation on permeability (Caco-2 monolayers): 9.3; Permeability Correlation P (A-B) (Caco-2 monolayers): 13.6; Permeability Correlation Ratio (Caco-2 monolayers): 9.3; MIC [4, 24]: 6.3 µM (≈ 6.02 µg/mL); MIC [4, 25]: 6.25 µM (≈ 5.97 µg/mL)
CCCCCn1cc(C[C@@H]2NC(=O)[C@H](CC(C)C)N(C)C(=O)[C@H](C(C)C)NC(=O)[C@H]([C@H](OC)c3ccccc3)NC(=O)[C@H](C)NC(=O)[C@H](C[C@@H](C)CO)N(C)C(=O)[C@H](Cc3cn(C)c4ccccc34)N(C)C2=O)nn1 [Compound 25]	79.2% and 83.9%	82	12.5 (≈ 13 µg/mL)	12.5 (≈ 13 µg/mL)	25.1	0.87	11.4	>88.4 >88.4%	> 88	6.3 (≈ 6.55 µg/mL)	6.25 (≈ 6.5 µg/mL)	21	27.872		62% and 62.6%	62	12.5 (≈ 13 µg/mL)	12.5 (≈ 13 µg/mL)	16		koff [2, 10]: 0.1 s⁻¹; Kd [2, 21]: 26.2 nM and 26 nM; koff ClpC1-NTD [2, 11]: 1E-1 1E-1 1/s; koff [2, 13]: 0.1 s⁻¹; Kd [2, 22]: 26.1 ± 0.1 nM; Papp A→B (in vitro; [16]): 0.9 ×10⁻⁶ cm/s; Papp B→A (in vitro; [23]): 22 ×10⁻⁶ cm/s; Permeability Correlation P (A-B) (Caco-2 monolayers): > 3; Permeability Correlation Ratio (Caco-2 monolayers): > 1.5; MIC [4, 24]: 6.3 µM (≈ 6.55 µg/mL); MIC [4, 25]: 6.25 µM (≈ 6.5 µg/mL); Hepatocyte Human [6]: 30 %Qh
COC(c1ccccc1)C1NC(=O)C(C)NC(=O)C(CC(C)CO)N(C)C(=O)C(Cc2cn(CC=CCn3cc(CC4NC(=O)C(C(C)C)NC(=O)C(CC(C)C)N(C)C(=O)C(C(C)C)NC(=O)C(C(OC)c5ccccc5)NC(=O)C(C)NC(=O)C(CC(C)CO)N(C)C4=O)c4ccccc43)c3ccccc23)NC(=O)C(C(C)C)NC(=O)C(CC(C)C)N(C)C(=O)C(C(C)C)NC1=O (stereo not shown) [Compound 15]	<24.200%	< 24	2.3 ± 0.9 (≈ 4.27 µg/mL)				2.0	<24.400%	< 24	0.2 ± 0.1 (≈ 0.372 µg/mL)		15	15.001	12.386	<23.100%	< 23	50 (≈ 92.9 µg/mL)	50 (≈ 92.9 µg/mL)	6	6.192	Kd [2, 21]: 1.81 nM and 0.654 nM; Kd [2, 22]: 1.2 ± 0.8 nM; Caco-2 Efflux ratio (Caco-2 monolayers): 0.8; Caco-2 permeability P (A-B) (Caco-2 monolayers): 2.2; Caco-2 permeability P (B-A) (Caco-2 monolayers): 1.8; MIC [4, 24]: 0.2 ± 0.1 µM (≈ 0.372 µg/mL); MIC [4, 26]: 0.200 µM and 0.390 µM and 0.097 µM (2×); Hepatocyte Human [6]: 12 %Qh

— publication PMC10914731, “Homo-BacPROTAC-induced degradation of ClpC1 as a strategy against drug-resistant mycobacteria” (Nature Communications, 2024)
